Read-outs that look alike come from different tables or passages of the source.
Target: T1, F508delCFTR (Homo sapiens, UniProt P13569, DEL508-508)
T1 construct: expressed in transfected cells; host or cells: CFBE41o- human lung-derived epithelial cells (CFBE4lo-F508delCFTR-HRP), doxycycline-inducible
Assay: Cell Surface Expression-Horse Radish Peroxidase (CSE-HRP) Assay;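 as to Maximum % activity (with co-corrector): co-corrector and positive control are both the same reference corrector at 2 µM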;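 as to Maximum % activity (without co-corrector): percent of the 2 µM on-plate positive control corrector response above DMSO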
Type: cell-based
Details: CSE-HRP; for Maximum % activity (with co-corrector): with co-corrector (2 μM); for Maximum % activity (with co-corrector) / Emax: maximum at any tested concentration, normalized to on-plate positive control; for Emax: without co-corrector, read-out: Maximum % activity (without co-corrector)

[1] = test compound without co-corrector, read-out: EC50 (without co-corrector)
[2] = with co-corrector (2 μM of 3-[(2R,4R)-4-({[1-(2,2-difluoro-1,3-benzodioxol-5-yl)cyclopropyl]carbonyl}amino)-7-methoxy-3,4-dihydro-2H-chromen-2-yl]benzoic acid), read-out: EC50 (with co-corrector)

T1 sequence (P13569 with tags, fused parts or gaps DEL508-508): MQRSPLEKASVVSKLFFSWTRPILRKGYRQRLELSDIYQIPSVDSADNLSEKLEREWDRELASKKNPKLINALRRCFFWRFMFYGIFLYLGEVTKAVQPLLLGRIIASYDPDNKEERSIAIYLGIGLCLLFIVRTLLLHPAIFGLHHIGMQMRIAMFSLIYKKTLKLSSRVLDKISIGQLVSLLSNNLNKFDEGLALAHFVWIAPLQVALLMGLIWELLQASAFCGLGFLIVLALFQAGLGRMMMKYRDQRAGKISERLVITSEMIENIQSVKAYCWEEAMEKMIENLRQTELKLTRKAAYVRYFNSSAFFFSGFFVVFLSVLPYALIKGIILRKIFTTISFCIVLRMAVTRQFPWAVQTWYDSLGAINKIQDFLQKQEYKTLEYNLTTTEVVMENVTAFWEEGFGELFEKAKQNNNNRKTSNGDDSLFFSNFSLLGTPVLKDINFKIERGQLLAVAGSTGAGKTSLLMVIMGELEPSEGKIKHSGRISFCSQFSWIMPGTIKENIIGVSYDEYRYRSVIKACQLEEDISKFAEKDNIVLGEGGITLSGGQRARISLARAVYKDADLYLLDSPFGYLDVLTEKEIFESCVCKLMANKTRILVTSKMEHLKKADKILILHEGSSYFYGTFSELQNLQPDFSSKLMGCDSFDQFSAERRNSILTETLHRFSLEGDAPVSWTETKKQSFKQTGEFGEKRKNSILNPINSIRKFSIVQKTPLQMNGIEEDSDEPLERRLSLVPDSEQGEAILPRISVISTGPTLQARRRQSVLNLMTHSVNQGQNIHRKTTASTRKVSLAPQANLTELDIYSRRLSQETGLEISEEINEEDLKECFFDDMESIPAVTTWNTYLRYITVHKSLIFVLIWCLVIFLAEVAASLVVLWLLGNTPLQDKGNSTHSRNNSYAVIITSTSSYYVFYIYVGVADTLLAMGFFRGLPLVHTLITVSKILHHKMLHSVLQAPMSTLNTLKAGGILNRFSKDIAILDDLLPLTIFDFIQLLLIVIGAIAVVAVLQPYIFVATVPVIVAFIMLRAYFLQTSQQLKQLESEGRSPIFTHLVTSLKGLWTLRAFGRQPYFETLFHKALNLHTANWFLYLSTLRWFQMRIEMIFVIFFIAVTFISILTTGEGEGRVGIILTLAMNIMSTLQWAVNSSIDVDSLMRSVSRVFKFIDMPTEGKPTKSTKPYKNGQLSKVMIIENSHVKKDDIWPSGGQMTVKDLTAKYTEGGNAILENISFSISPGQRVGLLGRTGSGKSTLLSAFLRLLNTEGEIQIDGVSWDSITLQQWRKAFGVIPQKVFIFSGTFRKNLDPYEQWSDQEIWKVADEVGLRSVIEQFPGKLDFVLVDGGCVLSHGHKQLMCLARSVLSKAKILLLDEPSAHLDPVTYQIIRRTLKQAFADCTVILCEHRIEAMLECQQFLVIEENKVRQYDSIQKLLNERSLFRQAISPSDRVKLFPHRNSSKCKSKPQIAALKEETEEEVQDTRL

COc1ccc(-c2cnccc2C)cc1CN[C@H]1[C@H](C(C)(C)C)[C@@H](C(=O)O)N(C(=O)C2CCCCC2)[C@H]1c1ccccc1 [II-280]
EC50 [1]: 1000 to 10000 nM | EC50 [2]: 1000 to 10000 nM | Maximum % activity (with co-corrector): +++ (≥350) | Emax: < 100%

COc1ccc(-c2cccc(C#N)c2)cc1CN[C@H]1[C@H](C(C)(C)C)[C@@H](C(=O)O)N(C(=O)C2CCCCC2)[C@H]1c1ccccc1 [II-281]
EC50 [1]: 1000 to 10000 nM | EC50 [2]: 1000 to 10000 nM | Maximum % activity (with co-corrector): +++ (≥350) | Emax: 100 to 200%

COc1ccc(-c2ccc(F)cc2C)cc1CN[C@H]1[C@H](C(C)(C)C)[C@@H](C(=O)O)N(C(=O)C2CCCCC2)[C@H]1c1ccccc1 [II-282]
EC50 [1]: < 1000 nM | EC50 [2]: < 1000 nM | Maximum % activity (with co-corrector): +++ (≥350) | Emax: > 200%

COc1ccc(-c2ccc(F)cc2F)cc1CN[C@H]1[C@H](C(C)(C)C)[C@@H](C(=O)O)N(C(=O)C2CCCCC2)[C@H]1c1ccccc1 [II-283]
EC50 [1]: < 1000 nM | EC50 [2]: < 1000 nM | Maximum % activity (with co-corrector): +++ (≥350) | Emax: > 200%

COc1ccc(-c2cccnc2)cc1CN[C@H]1[C@H](C(C)(C)C)[C@@H](C(=O)O)N(C(=O)C2CCCCC2)[C@H]1c1ccccc1 [II-284]
EC50 [1]: 1000 to 10000 nM | EC50 [2]: 1000 to 10000 nM | Maximum % activity (with co-corrector): +++ (≥350) | Emax: < 100%

COc1ccc(-c2c(C)noc2C)cc1CN[C@H]1[C@H](C(C)(C)C)[C@@H](C(=O)O)N(C(=O)C2CCCCC2)[C@H]1c1ccccc1 [II-285]
EC50 [1]: 1000 to 10000 nM | EC50 [2]: 1000 to 10000 nM | Maximum % activity (with co-corrector): +++ (≥350) | Emax: 100 to 200%

COc1ccc(-c2cccc(F)c2F)cc1CN[C@H]1[C@H](C(C)(C)C)[C@@H](C(=O)O)N(C(=O)C2CCCCC2)[C@H]1c1ccccc1 [II-286]
EC50 [1]: < 1000 nM | EC50 [2]: < 1000 nM | Maximum % activity (with co-corrector): +++ (≥350) | Emax: > 200%

COc1ccc(-c2cncc(F)c2)cc1CN[C@H]1[C@H](C(C)(C)C)[C@@H](C(=O)O)N(C(=O)C2CCCCC2)[C@H]1c1ccccc1 [II-287]
EC50 [1]: 1000 to 10000 nM | EC50 [2]: 1000 to 10000 nM | Maximum % activity (with co-corrector): +++ (≥350) | Emax: 100 to 200%

COc1ccc(-c2cccnc2C)cc1CN[C@H]1[C@H](C(C)(C)C)[C@@H](C(=O)O)N(C(=O)C2CCCCC2)[C@H]1c1ccccc1 [II-288]
EC50 [1]: 1000 to 10000 nM | EC50 [2]: 1000 to 10000 nM | Maximum % activity (with co-corrector): +++ (≥350) | Emax: < 100%

COc1ccc(-c2ccc(C#N)cc2)cc1CN[C@H]1[C@H](C(C)(C)C)[C@@H](C(=O)O)N(C(=O)C2CCCCC2)[C@H]1c1ccccc1 [II-289]
EC50 [1]: < 1000 nM | EC50 [2]: 1000 to 10000 nM | Maximum % activity (with co-corrector): +++ (≥350) | Emax: < 100%

COc1ccc(-c2cnn(C3CCC3)c2)cc1CN[C@H]1[C@H](C(C)(C)C)[C@@H](C(=O)O)N(C(=O)C2CCCCC2)[C@H]1c1ccccc1 [II-290]
EC50 [1]: 1000 to 10000 nM | EC50 [2]: 1000 to 10000 nM | Maximum % activity (with co-corrector): ++ (≥150 and <350) | Emax: < 100%

COc1ccc(-c2ccco2)cc1CN[C@H]1[C@H](C(C)(C)C)[C@@H](C(=O)O)N(C(=O)C2CCCCC2)[C@H]1c1ccccc1 [II-291]
EC50 [1]: 1000 to 10000 nM | EC50 [2]: 1000 to 10000 nM | Maximum % activity (with co-corrector): +++ (≥350) | Emax: > 200%

COc1ccc(OC(F)F)cc1CN[C@H]1[C@H](C(C)(C)C)[C@@H](C(=O)O)N(C(=O)C2CCCCC2)[C@H]1c1ccccc1 [II-292]
EC50 [1]: 1000 to 10000 nM | EC50 [2]: 1000 to 10000 nM | Maximum % activity (with co-corrector): +++ (≥350) | Emax: 100 to 200%

COc1ccc(C2=CCOC2)cc1CN[C@H]1[C@H](C(C)(C)C)[C@@H](C(=O)O)N(C(=O)C2CCCCC2)[C@H]1c1ccccc1 [II-293]
EC50 [1]: 1000 to 10000 nM | EC50 [2]: 1000 to 10000 nM | Maximum % activity (with co-corrector): +++ (≥350) | Emax: 100 to 200%

COc1ccc(C(C)(C)C)cc1CN[C@H]1[C@H](C(C)(C)OC)[C@@H](C(=O)O)N(C(=O)C2CCCCC2)[C@H]1c1ccccc1OC [II-294]
EC50 [1]: 1000 to 10000 nM | EC50 [2]: 1000 to 10000 nM | Maximum % activity (with co-corrector): +++ (≥350) | Emax: > 200%

COc1ccc(C(F)(F)F)cc1CN[C@H]1[C@H](C(C)(C)OC)[C@@H](C(=O)O)N(C(=O)C2CCCCC2)[C@H]1c1ccccc1OC [II-295]
EC50 [1]: 1000 to 10000 nM | EC50 [2]: 1000 to 10000 nM | Maximum % activity (with co-corrector): +++ (≥350) | Emax: 100 to 200%

COc1ccc(-c2ccccc2)nc1CN[C@H]1[C@H](C(C)(C)C)[C@@H](C(=O)O)N(C(=O)C2CCCCC2)[C@H]1c1ccccc1 [II-296]
EC50 [1]: 1000 to 10000 nM | EC50 [2]: 1000 to 10000 nM | Maximum % activity (with co-corrector): +++ (≥350) | Emax: 100 to 200%

COc1ccc(C(C)(C)C)cc1CN[C@H]1[C@H](C(C)(C)C)[C@@H](C(=O)O)N(C(=O)C(OC)C(C)(C)C)[C@H]1c1ccccc1 (stereo partly drawn) [II-298]
EC50 [1]: 1000 to 10000 nM | EC50 [2]: 1000 to 10000 nM | Maximum % activity (with co-corrector): +++ (≥350) | Emax: 100 to 200%

COc1ccc(C(F)(F)F)cc1CN[C@H]1[C@H](C(C)(C)C)[C@@H](C(=O)O)N(C(=O)C2Cc3ccccc3CO2)[C@H]1c1ccccc1 (stereo partly drawn) [II-299]
EC50 [1]: 1000 to 10000 nM | EC50 [2]: 1000 to 10000 nM | Maximum % activity (with co-corrector): +++ (≥350) | Emax: 100 to 200%

COc1ccc(C(C)(C)C)cc1CN[C@H]1[C@H](C(C)(C)C)[C@@H](C(=O)O)N(C(=O)C2Cc3ccccc3CO2)[C@H]1c1ccccc1 (stereo partly drawn) [II-300]
EC50 [1]: < 1000 nM | EC50 [2]: < 1000 nM | Maximum % activity (with co-corrector): +++ (≥350) | Emax: > 200%

COc1ncc(C(C)(C)C)cc1CN[C@H]1[C@H](C(C)(C)C)[C@@H](C(=O)O)N(C(=O)Cc2c(F)cccc2F)[C@H]1c1ccccc1 [II-301]
EC50 [1]: 1000 to 10000 nM | EC50 [2]: < 1000 nM | Maximum % activity (with co-corrector): +++ (≥350) | Emax: > 200%

COc1ccc(C(C)(C)C)cc1CN[C@H]1[C@H](C2(C)CC2)[C@@H](C(=O)O)N(C(=O)C2CCCCC2)[C@H]1c1ccccc1 [II-302]
EC50 [1]: 1000 to 10000 nM | EC50 [2]: < 1000 nM | Maximum % activity (with co-corrector): +++ (≥350) | Emax: > 200%

COc1cc(C(F)(F)F)ccc1CN[C@H]1[C@H](C2(C)CC2)[C@@H](C(=O)O)N(C(=O)C2CCCCC2)[C@H]1c1ccccc1 [II-303]
EC50 [1]: 1000 to 10000 nM | EC50 [2]: 1000 to 10000 nM | Maximum % activity (with co-corrector): +++ (≥350) | Emax: < 100%

COc1ccc(C(C)(C)C)cc1CN[C@H]1[C@H](C(C)(C)C)[C@@H](C(=O)O)N(C(=O)C(C)CC(F)(F)F)[C@H]1c1ccccc1 (stereo partly drawn) [II-304]
EC50 [1]: 1000 to 10000 nM | EC50 [2]: 1000 to 10000 nM | Maximum % activity (with co-corrector): +++ (≥350) | Emax: > 200%

COc1ccc(C(C)(C)C)cc1CN[C@H]1[C@H](C(C)(C)C)[C@@H](C(=O)O)N(C(=O)C(C)Oc2cccc(F)c2)[C@H]1c1ccccc1 (stereo partly drawn) [II-305]
EC50 [1]: < 1000 nM | EC50 [2]: < 1000 nM | Maximum % activity (with co-corrector): +++ (≥350) | Emax: 100 to 200%

COc1ccc(C(C)(C)C)cc1CN[C@H]1[C@H](C(C)(C)C)[C@@H](C(=O)O)N(C(=O)C2CC(C)C2)[C@H]1c1ccccc1 (stereo partly drawn) [II-306]
EC50 [1]: 1000 to 10000 nM | EC50 [2]: 1000 to 10000 nM | Maximum % activity (with co-corrector): +++ (≥350) | Emax: > 200%

COc1ccc(C(C)(C)C)cc1CN[C@H]1[C@H](C(C)(C)C)[C@@H](C(=O)O)N(C(=O)C2CC2c2ccc(F)cc2)[C@H]1c1ccccc1 (stereo partly drawn) [II-307]
EC50 [1]: < 1000 nM | EC50 [2]: < 1000 nM | Maximum % activity (with co-corrector): +++ (≥350) | Emax: > 200%

COc1ccc(C(C)(C)C)cc1CN[C@H]1[C@H](C(C)(C)C)[C@@H](C(=O)O)N(C(=O)[C@H](C)OC)[C@H]1c1ccccc1 [II-308]
EC50 [1]: 1000 to 10000 nM | EC50 [2]: 1000 to 10000 nM | Maximum % activity (with co-corrector): +++ (≥350) | Emax: 100 to 200%

COc1ccc(C(C)(C)C)cc1CN[C@H]1[C@H](C(C)(C)C)[C@@H](C(=O)O)N(C(=O)C2CC2(C)C)[C@H]1c1ccccc1 (stereo partly drawn) [II-309]
EC50 [1]: 1000 to 10000 nM | EC50 [2]: 1000 to 10000 nM | Maximum % activity (with co-corrector): +++ (≥350) | Emax: > 200%

COc1ccc(C(C)(C)C)cc1CN[C@H]1[C@H](C(C)(C)C)[C@@H](C(=O)O)N(C(=O)C(C)Oc2ccc(F)cc2)[C@H]1c1ccccc1 (stereo partly drawn) [II-310]
EC50 [1]: 1000 to 10000 nM | EC50 [2]: < 1000 nM | Maximum % activity (with co-corrector): +++ (≥350) | Emax: > 200%
